Experimental findings from patent US20210269434A1, “TRICYCLIC COMPOUNDS AS INHIBITORS OF KRAS” (Incyte Corporation, priority 2020, published 2021) are described below.

One assay concerns the target KRAS G12C (Homo sapiens, UniProt P01116, G12C). Nature of the assay: GDP-GTP exchange assay (KRAS_G12C exchange). As to conditions: bodipy-GDP loaded KRAS G12C 2.5 nM, SOS1 150 nM, GppNHp; 2 hours pre-incubation, 2 hours reaction; read-out: G12C_exchange. It is filed as biochemical. A digest of the protocol:
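Fluorescence exchange of bodipy-GDP for GppNHp, SOS1-driven, read at 485/520 nm; IC50 from four-parameter variable-slope fit. Both mutants used 2.5 nM final labelled protein and a 2 h compound pre-incubation. G12C reaction had 500 uM GppNHp and 150 nM SOS1 for 2 h; G12D ran 4 h.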

Assay [1] relates to MIA PaCa-2 (KRAS G12C) cells. Nature of the assay: Cellular pERK HTRF assay (KRAS_G12C pERK). It is filed as cell-based, human. The conditions noted are these: Homo sapiens, MIA PaCa-2, 4 hours incubation, read-out: G12C_pERK. A digest of the protocol:
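Phospho-ERK1/2 HTRF readout (665 and 620 nm) in lysed MIA PaCa-2 cells, antibodies incubated overnight at room temperature. Cells seeded the day before and treated with G12C compounds for 4 h at 37 °C; IC50 fitted to percent inhibition against log inhibitor concentration.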
For orientation: In TR-FRET formats the signal depends on donor and acceptor labels being close together.

Molecules are shown by their SMILES.

KRAS G12C, sequence (P01116 1-188 isoform P01116-2 G12C): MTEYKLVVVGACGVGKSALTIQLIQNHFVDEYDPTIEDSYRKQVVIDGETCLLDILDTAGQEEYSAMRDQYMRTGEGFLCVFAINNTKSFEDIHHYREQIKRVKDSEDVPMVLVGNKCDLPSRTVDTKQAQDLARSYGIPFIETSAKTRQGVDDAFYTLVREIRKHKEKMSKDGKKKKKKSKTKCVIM

Take `C=CC(=O)N1CC[C@H](n2nnc3c(N4CC(C)(N(C)C)C4)nc4c(F)c(-c5c(C)ccc6[nH]ncc56)c(C)cc4c32)C[C@H]1CC#N` (single isomer, unassigned) [Example 200a]: the IC50 (on KRAS G12C; in assay [1]) was not above 100 nM in each case.

For `CC#CC(=O)N1CC[C@H](n2nnc3c(N4CC(C)(N(C)C)C4)nc4c(F)c(-c5cccc(C)c5C)c(C)cc4c32)C[C@H]1CC#N` [Example 226, 2-((2S,4S)-1-(but-2-ynoyl)-4-(4-(3-(dimethylamino)-3-methylazetidin-1-yl)-7-(2,3-dimethylphenyl)-6-fluoro-8-methyl-1H-[1,2,3]triazolo[4,5-c]quinolin-1-yl)piperidin-2-yl)acetonitrile], the IC50 (on KRAS G12C; in assay [1]) was not above 100 nM in each case.

In the case of `C=CC(=O)N1CC[C@H](n2cnc3c(N4CC(N(C)C)C4)nc4c(F)c(-c5cccc6ccccc56)c(Cl)cc4c32)C[C@H]1CC#N` [Example 46, 2-((2S,4S)-1-acryloyl-4-(8-chloro-4-(3-(dimethylamino)azetidin-1-yl)-6-fluoro-7-(naphthalen-1-yl)-1H-imidazo[4,5-c]quinolin-1-yl)piperidin-2-yl)acetonitrile], the IC50 (on KRAS G12C; in assay [1]) was not above 100 nM each time.

For `CC#CC(=O)N1CC[C@H](n2nnc3c(N4CCOCC4=O)nc4c(F)c(-c5cccc(Cl)c5C)c(Cl)cc4c32)C[C@H]1CC#N` [Example 91, 2-((2S,4S)-1-(but-2-ynoyl)-4-(8-chloro-7-(3-chloro-2-methylphenyl)-6-fluoro-4-(3-oxomorpholino)-1H-[1,2,3]triazolo[4,5-c]quinolin-1-yl)piperidin-2-yl)acetonitrile], the IC50 (at KRAS G12C; in assay [1]) was not above 100 nM in each case.

As for `C=CC(=O)N1CC[C@H](n2cnc3c(N4CC(N(C)C)C4)nc4c(F)c(-c5cccc(C)c5Cl)c(Cl)cc4c32)C[C@H]1CC#N` [Example 19, 2-((2S,4S)-1-acryloyl-4-(8-chloro-7-(2-chloro-3-methylphenyl)-4-(3-(dimethylamino)azetidin-1-yl)-6-fluoro-1H-imidazo[4,5-c]quinolin-1-yl)piperidin-2-yl)acetonitrile], the IC50 (at KRAS G12C; in assay [1]) was not above 100 nM each time.

For the compound `C=CC(=O)N1CC[C@H](n2cnc3c(N4CC(N(C)C)C4)nc4c(F)c(-c5cccc6cccnc56)c(Cl)cc4c32)C[C@H]1CC#N` (single isomer, unassigned) [Example 72a], the IC50 (at KRAS G12C; in assay [1]) was not above 100 nM each time.

`C=CC(=O)N1CC[C@H](n2nnc3c(N4CC(N(C)C)C4)nc4c(F)c(-c5cccc(Cl)c5Cl)c(Cl)cc4c32)C[C@H]1CC#N` [Example 113, 2-((2S,4S)-1-acryloyl-4-(8-chloro-7-(2,3-dichlorophenyl)-4-(3-(dimethylamino)azetidin-1-yl)-6-fluoro-1H-[1,2,3]triazolo[4,5-c]quinolin-1-yl)piperidin-2-yl)acetonitrile]: the IC50 (at KRAS G12C; in assay [1]) was not above 100 nM throughout.

Consider `Cc1cccc(-c2c(C)cc3c(nc(O[C@@H](C)CN(C)C)c4nnn([C@H]5CCN(C(=O)/C=C/CF)[C@H](CC#N)C5)c43)c2F)c1C` [Example 143, 2-((2S,4S)-4-(4-(((S)-1-(dimethylamino)propan-2-yl)oxy)-7-(2,3-dimethylphenyl)-6-fluoro-8-methyl-1H-[1,2,3]triazolo[4,5-c]quinolin-1-yl)-1-((E)-4-fluorobut-2-enoyl)piperidin-2-yl)acetonitrile], for which the IC50 (at KRAS G12C; in assay [1]) was not above 100 nM throughout.

For `C=CC(=O)N1CCC(n2nnc3c(N4CC(C)(N(C)C)C4)nc4c(F)c(-c5cccc6cccc(Cl)c56)c(C)cc4c32)C[C@H]1CC#N` (stereo partly drawn) [Example 225, 2-((2S)-1-acryloyl-4-(7-(8-chloronaphthalen-1-yl)-4-(3-(dimethylamino)-3-methylazetidin-1-yl)-6-fluoro-8-methyl-1H-[1,2,3]triazolo[4,5-c]quinolin-1-yl)piperidin-2-yl)acetonitrile], the IC50 (at KRAS G12C; in assay [1]) was not above 100 nM each time.

As to `C[C@@H](CN(C)C)Oc1nc2c(F)c(-c3ccc(F)cc3)c(Cl)cc2c2c1nnn2[C@H]1CCN(C(=O)/C=C/CF)[C@H](CC#N)C1` [Example 130, 2-((2S,4S)-4-(8-chloro-4-(((S)-1-(dimethylamino)propan-2-yl)oxy)-6-fluoro-7-(4-fluorophenyl)-1H-[1,2,3]triazolo[4,5-c]quinolin-1-yl)-1-((E)-4-fluorobut-2-enoyl)piperidin-2-yl)acetonitrile], the IC50 (on KRAS G12C; in assay [1]) was not above 100 nM throughout.

With `C=CC(=O)N1CC[C@H](n2nnc3c(N4CC(N(C)C)C4)nc4c(Cl)c(-c5cccc6cccnc56)c(Cl)cc4c32)C[C@H]1CC#N` (single isomer, unassigned) [Example 283a], the IC50 (at KRAS G12C; in assay [1]) was not above 100 nM each time.

For `COc1c(Cl)cccc1-c1c(C(F)(F)F)cc2c(nc(N3CC(C)(N(C)C)C3)c3nnn([C@H]4CCN(C(=O)/C=C/CN(C)C)[C@H](CC#N)C4)c32)c1F` [Example 244, 2-((2S,4S)-4-(7-(3-chloro-2-methoxyphenyl)-4-(3-(dimethylamino)-3-methylazetidin-1-yl)-6-fluoro-8-(trifluoromethyl)-1H-[1,2,3]triazolo[4,5-c]quinolin-1-yl)-1-((E)-4-(dimethylamino)but-2-enoyl)piperidin-2-yl)acetonitrile], the IC50 (at KRAS G12C; in assay [1]) was not above 100 nM each time.

`CN(C)C/C=C/C(=O)N1CC[C@H](n2cnc3c(N4CC(N(C)C)C4)nc4c(F)c(-c5ccc(F)c6cccnc56)c(C(F)(F)F)cc4c32)C[C@H]1CC#N` (single isomer, unassigned) [Example 230a]: the IC50 (at KRAS G12C; in assay [1]) was not above 100 nM each time.

Consider `CC#CC(=O)N1CC[C@H](n2nnc3c(OC[C@@H]4CCCN4C)nc4c(Cl)c(-c5ccc(F)c6cccnc56)c(Cl)cc4c32)C[C@H]1CC#N` (single isomer, unassigned) [Example 270a], for which the IC50 (at KRAS G12C; in assay [1]) was not above 100 nM in each case.

Regarding `COC/C=C/C(=O)N1CC[C@H](n2nnc3c(N4CC(N(C)C)C4)nc4c(F)c(-c5c(C)c(Cl)cc6[nH]ncc56)c(Cl)cc4c32)C[C@H]1CC#N` [Example 186a, 2-((2S,4S)-4-(8-chloro-7-(6-chloro-5-methyl-1H-indazol-4-yl)-4-(3-(dimethylamino)azetidin-1-yl)-6-fluoro-1H-[1,2,3]triazolo[4,5-c]quinolin-1-yl)-1-((E)-4-methoxybut-2-enoyl)piperidin-2-yl)acetonitrile], the IC50 (on KRAS G12C; in assay [1]) was not above 100 nM throughout.

In the case of `CN(C)C/C=C/C(=O)N1CC[C@H](n2cnc3c(N4CC(N(C)C)C4)nc4c(F)c(-c5cncc6ccccc56)c(Cl)cc4c32)C[C@H]1CC#N` [Example 175, 2-((2S,4S)-4-(8-chloro-4-(3-(dimethylamino)azetidin-1-yl)-6-fluoro-7-(isoquinolin-4-yl)-1H-imidazo[4,5-c]quinolin-1-yl)-1-((E)-4-(dimethylamino)but-2-enoyl)piperidin-2-yl)acetonitrile], the IC50 (at KRAS G12C; in assay [1]) was not above 100 nM in each case.

As to `Cc1cccc(-c2c(C)cc3c(nc(N4CC(N(C)C)C4)c4nnn([C@H]5CCN(C(=O)/C=C/CF)[C@H](CC#N)C5)c43)c2F)c1C` [Example 206, 2-((2S,4S)-4-(4-(3-(dimethylamino)azetidin-1-yl)-7-(2,3-dimethylphenyl)-6-fluoro-8-methyl-1H-[1,2,3]triazolo[4,5-c]quinolin-1-yl)-1-((E)-4-fluorobut-2-enoyl)piperidin-2-yl)acetonitrile], the IC50 (at KRAS G12C; in assay [1]) was not above 100 nM throughout.

In the case of `C=CC(=O)N1CC[C@H](n2cnc3c(N4CC(N(C)C)C4)nc4c(F)c(-c5cc(O)cc(C)c5C)c(Cl)cc4c32)C[C@H]1CC#N` (single isomer, unassigned) [Example 52a], the IC50 (at KRAS G12C; in assay [1]) was not above 100 nM throughout.

For `COC/C=C/C(=O)N1CC[C@H](n2cnc3c(OC[C@@H]4CCCN4C)nc4c(F)c(-c5c(C)c(Cl)cc6[nH]ncc56)c(Cl)cc4c32)C[C@H]1CC#N` [Example 184a, 2-((2S,4S)-4-(8-chloro-7-(6-chloro-5-methyl-1H-indazol-4-yl)-6-fluoro-4-(((S)-1-methylpyrrolidin-2-yl)methoxy)-1H-imidazo[4,5-c]quinolin-1-yl)-1-((E)-4-methoxybut-2-enoyl)piperidin-2-yl)acetonitrile], the IC50 (on KRAS G12C; in assay [1]) was not above 100 nM in each case.

As to `CC#CC(=O)N1CC[C@H](n2nnc3c(OC[C@@H]4CCCN4C)nc4c(F)c(-c5cccc(C)c5C)c(C)cc4c32)C[C@H]1CC#N` [Example 139, 2-((2S,4S)-1-(but-2-ynoyl)-4-(7-(2,3-dimethylphenyl)-6-fluoro-8-methyl-4-(((S)-1-methylpyrrolidin-2-yl)methoxy)-1H-[1,2,3]triazolo[4,5-c]quinolin-1-yl)piperidin-2-yl)acetonitrile], the IC50 (on KRAS G12C; in assay [1]) was not above 100 nM each time.

`C=CC(=O)N1CC[C@H](n2nnc3c(N4CC(C)(N(C)C)C4)nc4c(F)c(-c5cccc(C)c5C)c(C)cc4c32)C[C@H]1CC#N` [Example 208, 2-((2S,4S)-1-acryloyl-4-(4-(3-(dimethylamino)-3-methylazetidin-1-yl)-7-(2,3-dimethylphenyl)-6-fluoro-8-methyl-1H-[1,2,3]triazolo[4,5-c]quinolin-1-yl)piperidin-2-yl)acetonitrile]: the IC50 (on KRAS G12C; in assay [1]) was not above 100 nM in each case.
